The target of one series is human mGlu2 receptor (Homo sapiens, UniProt Q14416). Description: [35S]GTPγS binding assay, mGluR2 negative allosteric modulation (membranes from CHO cells transfected with human mGlu2 receptor, glutamate ~EC80 60 μM).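 For all read-outs here: membranes preincubated 30 min at 30 °C with compound plus glutamate, then [35S]GTPγS (0.1 nM) incorporation measured over another 30 min at 30 °C.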 The conditions noted are these: for GTPγS - hmGluR2 anGT pIC50: membranes with human mGlu2 receptor; for GTPγS - hmGluR2 anGT pIC50 / IC50: glutamate ~EC80 (60 μM), pIC50 = -log IC50 (M); for GTPγS - hmGluR2 anGT Emax: relative maximal effect: maximal % inhibition relative to the control glutamate response; for IC50: GTPγS - hmGluR2 anGT pIC50, membranes with human mGlu2 receptor; for Emax: read-out: GTPγS - hmGluR2 anGT Emax, relative maximal effect: maximal % inhibition relative to the control glutamate response. A general note: GTPγS is a poorly hydrolysed GTP analogue; its binding reports G protein activation.

Each structure is given as a SMILES string. Counter-ions that a name gives are not always drawn.

Sequence of human mGlu2 receptor (Q14416 19-872): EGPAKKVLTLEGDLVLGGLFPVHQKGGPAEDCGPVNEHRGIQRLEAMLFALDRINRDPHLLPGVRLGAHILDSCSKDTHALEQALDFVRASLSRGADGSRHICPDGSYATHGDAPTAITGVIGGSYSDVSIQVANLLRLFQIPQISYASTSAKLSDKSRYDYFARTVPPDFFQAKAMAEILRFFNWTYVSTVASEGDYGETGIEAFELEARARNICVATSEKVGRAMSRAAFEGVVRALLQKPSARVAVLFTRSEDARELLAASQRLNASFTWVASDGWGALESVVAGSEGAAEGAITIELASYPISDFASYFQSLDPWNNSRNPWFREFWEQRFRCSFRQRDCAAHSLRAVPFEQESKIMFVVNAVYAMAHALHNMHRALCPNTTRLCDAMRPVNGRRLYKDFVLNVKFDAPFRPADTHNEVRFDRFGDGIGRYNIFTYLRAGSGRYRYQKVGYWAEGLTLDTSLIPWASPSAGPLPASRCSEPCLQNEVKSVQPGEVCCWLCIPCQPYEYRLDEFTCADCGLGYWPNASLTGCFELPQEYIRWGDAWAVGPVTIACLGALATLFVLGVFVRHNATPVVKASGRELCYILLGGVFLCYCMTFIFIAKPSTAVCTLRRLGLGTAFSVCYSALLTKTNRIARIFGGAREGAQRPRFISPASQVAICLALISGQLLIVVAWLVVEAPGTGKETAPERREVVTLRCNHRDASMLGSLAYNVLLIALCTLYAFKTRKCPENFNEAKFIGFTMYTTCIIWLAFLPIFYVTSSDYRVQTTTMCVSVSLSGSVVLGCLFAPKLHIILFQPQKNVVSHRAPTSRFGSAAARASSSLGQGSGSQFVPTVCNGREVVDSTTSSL
Experimental for human mGlu2 receptor: The [^35S]GTPγS binding assay is a functional membrane-based assay used to study G-protein coupled receptor (GPCR) function whereby incorporation of a non-hydrolysable form of GTP, [^35S]GTPγS (guanosine 5′-triphosphate, labelled with gamma-emitting ^35S), is measured. […] Here we describe the use of the [^35S]GTPγS binding assay using membranes from cells transfected with the human mGlu2 receptor and adapted from Schaffhauser et al. (Molecular Pharmacology, 2003, 4:798-810) for the detection of the negative allosteric modulation (NAM) properties of the compounds of this invention.
CHO-cells were cultured to pre-confluence and stimulated with 5 mM butyrate for 24 h. Cells were then collected by scraping in PBS and cell suspension was centrifuged (10 min at 4000 RPM in benchtop centrifuge). Supernatant was discarded and pellet gently resuspended in 50 mM Tris-HCl, pH 7.4 by mixing with an Ultra Turrax homogenizer. The suspension was centrifuged at 12,400 RPM (Sorvall F14S-6x250Y) for 10 minutes and the supernatant discarded. The pellet was homogenized in 5 mM Tris-HCl, pH 7.4 using an Ultra Turrax homogenizer and centrifuged again (13,000 RPM, 20 min, 4° C.). The final pellet was resuspended in 50 mM Tris-HCl, pH 7.4 and stored at −80° C. in appropriate aliquots before use. Protein concentration was determined by the Bradford method (Bio-Rad, USA) with bovine serum albumin as standard.
Measurement of mGluR2 negative allosteric modulatory activity of test compounds was performed as follows. Test compounds and glutamate were diluted in assay buffer containing 10 mM HEPES acid, 10 mM HEPES salt, pH 7.4, 100 mM NaCl, 3 mM MgCl2 and 10 μM GDP. Human mGlu2 receptor-containing membranes were thawed on ice and diluted in assay buffer supplemented with 18 μg/ml saponin. Membranes were pre-incubated with compound together with a predefined (˜EC80) concentration of glutamate (60 μM) for 30 min at 30° C. After addition of [^35S]GTPγS (f.c. 0.1 nM), assay mixtures were shaken briefly and further incubated to allow [^35S]GTPγS incorporation on activation (30 minutes, 30° C.). Final assay mixtures contained 7 μg of membrane protein in 10 mM HEPES acid, 10 mM HEPES salt, pH 7.4, 100 mM NaCl, 3 mM MgCl2, 10 μM GDP and 10 μg/ml saponin. Total reaction volume was 200 μl. Reactions were terminated by rapid filtration through Unifilter-96 GF/B plates (Perkin Elmer, Massachusetts, USA) using a 96-well filtermate universal harvester. Filters were washed 6 times with ice-cold 10 mM NaH2PO4/10 mM Na2HPO4, pH 7.4. Filters were then air-dried, and 30 μl of liquid scintillation cocktail (Microscint-O) was added to each well. Membrane-bound radioactivity was counted in a Topcount.
Data were calculated as % of the control glutamate response, defined as the response that is generated upon addition of an EC80-equivalent concentration of glutamate.

As a reminder, the melting point is the temperature of the solid-liquid transition. Regarding `C[C@H]1CN(c2ccc(C(F)(F)F)cc2)C(=O)c2c(C(=O)Nc3cncc(F)c3)cnn21` (as salt: HCl) [13a], the melting point was 146.4 °C.

For `COCC1CN(c2ccc(C(F)(F)F)cc2)C(=O)c2c(C(=O)Nc3cccnc3)cnn21` (racemic) [compound 165], at human mGlu2 receptor, the “GTPγS - hmGluR2 anGT pIC50” value came to 8.03 and the “GTPγS - hmGluR2 anGT Emax” value is 106%.

As usually defined, the IC50 is the concentration that gives 50% inhibition. For orientation: Emax means the greatest response seen or fitted, relative to the assay's reference. As for `CC(NC(=O)c1cnn2c1C(=O)N(c1ccc(C(F)(F)F)cc1)C[C@@H]2C)C1CC1` (single isomer, unassigned) [compound 61], the melting point amounted to 186.7 °C. For the same molecule, at human mGlu2 receptor, the IC50 was 7.08e-08 M and the maximal effect (Emax) was determined as 104%.

Regarding `COCC1CN(c2ccc(C(F)(F)F)cc2)C(=O)c2c(C(=O)Nc3cnccn3)cnn21` (single isomer, unassigned) [compound 155], at human mGlu2 receptor, the “GTPγS - hmGluR2 anGT pIC50” value turned out to be 6.48 and the “GTPγS - hmGluR2 anGT Emax” value is 106%.

As to `COCC1CN(c2ccc(C(F)(F)F)c(Cl)c2)C(=O)c2c(C(=O)Nc3cccnc3)cnn21` (single isomer, unassigned) [compound 157], at human mGlu2 receptor, the IC50 was 2.82e-07 M and the Emax turned out to be 104%.

Consider `COCC1CN(c2ccc(C(F)(F)F)cc2)C(=O)c2c(C(=O)Nc3cccnc3)cnn21` (single isomer, unassigned) [compound 159], for which, on human mGlu2 receptor, the “GTPγS - hmGluR2 anGT pIC50” value was 6.10 and the “GTPγS - hmGluR2 anGT Emax” value is 108%.

On to `C[C@H]1CN(c2ccc(C(F)(F)F)cc2)C(=O)c2c(C(=O)Nc3cncc(F)c3)cnn21` [13a], for which, on human mGlu2 receptor, the IC50 was 1.1e-09 M and the “GTPγS - hmGluR2 anGT Emax” value was determined as 106%.

Regarding `C[C@H]1CN(c2ccc(C(F)(F)F)cc2)C(=O)c2c(C(=O)Nc3cccc(S(C)(=O)=O)c3)cnn21` [compound 2], the melting point is 217.7 °C. Further, on human mGlu2 receptor, the IC50 was 1.7e-09 M and the Emax amounted to 103%.

For `C[C@H]1CN(c2ccc(C(F)(F)F)cc2)C(=O)c2c(C(=O)Nc3ccc(S(C)(=O)=O)cc3)cnn21` [compound 6], the melting point came out at 198.2 °C. For the same molecule, at human mGlu2 receptor, the IC50 was 3.09e-09 M and the Emax came out at 107%.

`Cc1ncccc1NC(=O)c1cnn2c1C(=O)N(c1ccc(C(F)(F)F)cc1)C[C@@H]2C` [compound 10] returned a melting point of 171.6 °C. Further, at human mGlu2 receptor, the IC50 was 2e-08 M and the Emax stood at 113%.

For the molecule `COc1cccnc1NC(=O)c1cnn2c1C(=O)N(c1ccc(C(F)(F)F)cc1)C[C@@H]2C` [compound 11], the melting point amounted to 164.7 °C. At human mGlu2 receptor, the IC50 was 2.4e-07 M and the Emax came to 109%.

In the case of `C[C@H]1CN(c2ccc(C(F)(F)F)cc2)C(=O)c2c(C(=O)Nc3ncccc3F)cnn21` [compound 12], at human mGlu2 receptor, the IC50 was 4.79e-08 M and the maximum response (Emax) was determined as 110%.

Consider `COc1cnccc1NC(=O)c1cnn2c1C(=O)N(c1ccc(C(F)(F)F)cc1)C[C@@H]2C` [compound 16], for which the melting point was 200.8 °C. Moreover, at human mGlu2 receptor, the IC50 was 1.38e-08 M and the Emax turned out to be 115%.

As to `Cc1cccc(NC(=O)c2cnn3c2C(=O)N(c2ccc(C(F)(F)F)cc2)C[C@@H]3C)n1` [compound 17], at human mGlu2 receptor, the “GTPγS - hmGluR2 anGT pIC50” value was found to be 7.39 and the “GTPγS - hmGluR2 anGT Emax” value was found to be 107%.

On to `Cc1cncc(NC(=O)c2cnn3c2C(=O)N(c2ccc(C(F)(F)F)c(F)c2)C[C@@H]3C)c1` [compound 22], for which the melting point stood at 246.7 °C. At human mGlu2 receptor, the IC50 is 3.55e-09 M and the Emax was 109%.

For the molecule `C[C@H]1CN(c2ccc(C(F)(F)F)c(F)c2)C(=O)c2c(C(=O)Nc3cncc(F)c3)cnn21` [compound 24], the melting point turned out to be 204 °C. Besides, on human mGlu2 receptor, the IC50 is 3.24e-09 M and the Emax was 107%.

In turn, `COCc1cc(N2C[C@H](C)n3ncc(C(=O)Nc4ccccn4)c3C2=O)ccc1C(F)(F)F` [compound 31] yielded a melting point of 160.4 °C. For the same molecule, on human mGlu2 receptor, the IC50 is 2.29e-08 M and the Emax was 109%.

Regarding `COc1cncc(NC(=O)c2cnn3c2C(=O)N(c2ccc(C(F)(F)F)c(OC)c2)C[C@@H]3C)c1` [compound 34], the melting point came to 191.5 °C. On human mGlu2 receptor, the IC50 is 1.05e-08 M and the Emax worked out at 107%.

`C[C@H]1CN(c2ccc(C(F)(F)F)c(Cl)c2)C(=O)c2c(C(=O)Nc3cncc(F)c3)cnn21` [compound 50] showed a melting point of 168.1 °C. Moreover, at human mGlu2 receptor, the IC50 was 1.74e-09 M and the Emax worked out at 108%.

On to `COc1cncc(NC(=O)c2cnn3c2C(=O)N(c2ccc(C(F)(F)F)c(Cl)c2)C[C@@H]3C)c1` [compound 51], for which the melting point was found to be 214.9 °C. Also, on human mGlu2 receptor, the IC50 is 1.41e-09 M and the Emax turned out to be 113%.

`C[C@H]1CN(c2ccc(C(F)(F)F)c(CF)c2)C(=O)c2c(C(=O)Nc3ccncc3)cnn21` [compound 52] gave a melting point of 197.4 °C. In addition, at human mGlu2 receptor, the IC50 was 2.57e-09 M and the Emax turned out to be 118%.

`C[C@H]1CN(c2ccc(C(F)(F)F)c(CF)c2)C(=O)c2c(C(=O)Nc3cccnc3)cnn21` [compound 53]: at human mGlu2 receptor, the “GTPγS - hmGluR2 anGT pIC50” value is reported as 8.61 and the “GTPγS - hmGluR2 anGT Emax” value amounted to 114%.

As to `Cc1cc(NC(=O)c2cnn3c2C(=O)N(c2ccc(C(F)(F)F)c(CF)c2)C[C@@H]3C)ccn1` [compound 54], the melting point amounted to 141.3 °C. On human mGlu2 receptor, the IC50 was 5.25e-09 M and the maximal effect (Emax) is 118%.

With `C[C@H]1CN(c2ccc(C(F)(F)F)cc2)C(=O)c2c(C(=O)Nc3ccc(F)nc3)cnn21` [compound 55, (7S)—N-(6-fluoro-3-pyridyl)-7-methyl-4-oxo-5-[4-(trifluoromethyl)phenyl]-6,7-dihydropyrazolo[1,5-a]pyrazine-3-carboxamide], at human mGlu2 receptor, the IC50 is 5.62e-09 M and the Emax stood at 101%.

Turning to `C[C@H]1CN(c2ccc(Cl)c(Cl)c2)C(=O)c2c(C(=O)Nc3ccc(F)nc3)cnn21` [compound 56], at human mGlu2 receptor, the “GTPγS - hmGluR2 anGT pIC50” value was found to be 8.53 and the “GTPγS - hmGluR2 anGT Emax” value stood at 104%.

For `C[C@H]1CN(c2ccc(C(F)(F)F)cc2)C(=O)c2c(C(=O)Nc3ccccc3)cnn21` [compound 57, (7S)-7-Methyl-4-oxo-N-phenyl-5-[4-(trifluoromethyl)phenyl]-6,7-dihydropyrazolo[1,5-a]pyrazine-3-carboxamide], on human mGlu2 receptor, the IC50 was 1.7e-09 M and the Emax is 102%.

With `C[C@H]1CN(c2ccc(C(F)(F)F)cc2)C(=O)c2c(C(=O)NCC3CCC3)cnn21` [compound 58], the melting point came out at 204.6 °C. Further, at human mGlu2 receptor, the IC50 was 1.82e-08 M and the Emax was 113%.

As for `C[C@H]1CN(c2ccc(C(F)(F)F)cc2)C(=O)c2c(C(=O)NCC3CCCC3)cnn21` [compound 59], the melting point turned out to be 159.8 °C. For the same molecule, at human mGlu2 receptor, the IC50 was 3.55e-08 M and the Emax turned out to be 103%.

`C[C@H]1CN(c2ccc(C(F)(F)F)cc2)C(=O)c2c(C(=O)NCC3CC3)cnn21` [compound 60] registered a melting point of 161.4 °C. For the same molecule, at human mGlu2 receptor, the IC50 is 4.37e-08 M and the Emax is 103%.

With `C[C@H]1CN(c2ccc(C(F)(F)F)cc2)C(=O)c2c(C(=O)NCC3CCCO3)cnn21` (stereo partly shown) [compound 62], the melting point stood at 231.4 °C. In addition, on human mGlu2 receptor, the IC50 was 7.76e-08 M and the Emax stood at 104%.

`Cc1cc(CNC(=O)c2cnn3c2C(=O)N(c2ccc(C(F)(F)F)cc2)C[C@@H]3C)ccn1` [compound 63] showed a melting point of 148.8 °C. On human mGlu2 receptor, the IC50 is 1.17e-07 M and the Emax was 99%.

Turning to `C[C@H]1CN(c2ccc(C(F)(F)F)cc2)C(=O)c2c(C(=O)NCC3CCOC3)cnn21` (stereo partly shown) [compound 64], the melting point was 68.3 °C. Further, on human mGlu2 receptor, the IC50 is 1.7e-07 M and the Emax turned out to be 107%.

On to `C[C@H]1CN(c2ccc(C(F)(F)F)cc2)C(=O)c2c(C(=O)NC3CCOCC3)cnn21` [compound 66], for which, on human mGlu2 receptor, the IC50 was 1.86e-07 M and the Emax turned out to be 103%.

Consider `C[C@H]1CN(c2ccc(C(F)(F)F)cc2)C(=O)c2c(C(=O)NCc3ccccc3)cnn21` [compound 67], for which, at human mGlu2 receptor, the half-maximal inhibitory concentration (IC50) was 2e-07 M and the Emax is 104%.

For `C[C@H]1CN(c2ccc(C(F)(F)F)cc2)C(=O)c2c(C(=O)NC(C)(C)C)cnn21` [compound 68], at human mGlu2 receptor, the IC50 is 2.63e-07 M and the Emax is 102%.

In the case of `CNC(=O)c1cnn2c1C(=O)N(c1ccc(C(F)(F)F)cc1)C[C@@H]2C` [compound 69], on human mGlu2 receptor, the IC50 is 4.57e-07 M and the Emax came to 103%.

Regarding `COc1ccc(NC(=O)c2cnn3c2C(=O)N(c2ccc(C(F)(F)F)cc2)C[C@@H]3C)nc1` [compound 102], at human mGlu2 receptor, the “GTPγS - hmGluR2 anGT pIC50” value is 7.67 and the “GTPγS - hmGluR2 anGT Emax” value was 112%.

As for `C[C@H]1CN(c2ccc(C(F)(F)F)cc2)C(=O)c2c(C(=O)NC=O)cnn21` [compound 134], on human mGlu2 receptor, the IC50 was 6.31e-08 M and the Emax turned out to be 103%.

`Cc1cc(C(=O)NC(=O)c2cnn3c2C(=O)N(c2ccc(C(F)(F)F)cc2)C[C@@H]3C)ccn1` [compound 135, (7S)-7-Methyl-N-(2-methylpyridine-4-carbonyl)-4-oxo-5-[4-(trifluoromethyl)phenyl]-6,7-dihydropyrazolo[1,5-a]pyrazine-3-carboxamide]: at human mGlu2 receptor, the IC50 was 6.92e-07 M and the Emax came out at 111%.

On to `COCc1cc(NC(=O)c2cnn3c2C(=O)N(c2ccc(C(F)(F)F)cc2)C[C@@H]3C)ccn1` [compound 149], for which, at human mGlu2 receptor, the “GTPγS - hmGluR2 anGT pIC50” value came out at 7.69 and the “GTPγS - hmGluR2 anGT Emax” value worked out at 104%.

With `COCC1CN(c2ccc(C(F)(F)F)cc2)C(=O)c2c(C(=O)Nc3cnccn3)cnn21` (stereo not shown) [compound 163], on human mGlu2 receptor, the IC50 is 1.02e-08 M and the Emax amounted to 107%.

For `COCC1CN(c2ccc(C(F)(F)F)c(Cl)c2)C(=O)c2c(C(=O)Nc3cccnc3)cnn21` (stereo not shown) [compound 164], on human mGlu2 receptor, the IC50 is 1.91e-09 M and the Emax came to 108%.

The values are drawn from patent US20200121677A1, “SUBSTITUTED 6,7-DIHYDROPYRAZOLO[1,5-a]PYRAZINES AS NEGATIVE ALLOSTERIC MODULATORS OF MGLUR2 RECEPTORS” (Janssen Pharmaceutica NV, priority 2014, published 2020).
